Source: patent US8492521B2, “Oxidative stress responsive apoptosis inducing protein eIF5A” (priority 2008, dated 2013)
Where a SMILES comes first, the peptide text is derived from it. The star is where a group is joined. Cbz = O=C(OCc1ccccc1)*; CH2F = FC*

Experiments:
cardiac myocytes [1] = test: Effect of PARP-1 inhibitor and caspase inhibitor on apoptosis of cardiac myocytes induced by recombinant eIF5A (RCP) (TUNEL); assay type: cell-based, rat; settings: inhibitor added 1 hour before recombinant eIF5A (RCP), 3-aminobenzamide 2 mM, Z-VAD.fmk 100 μM, TUNEL at 72 hours
[2] = test system: cultured cardiac myocytes; test: Induction of apoptosis of cultured cardiac myocytes by recombinant eIF5A proteins (TUNEL / cardiac myosin double staining); assay type: cell-based, rat; settings: recombinant protein 10 μg/mL
[3] = Isoelectric point by two-dimensional gel electrophoresis and Western blotting; assay type: physicochemical; settings: two-dimensional gel electrophoresis, tagged recombinant protein
Experimental: Quail muscle cells were transfected with eIF5A-myc-His vector and myc- and His-tagged recombinant eIF5A protein was collected from the cytoplasm of the transfected cells. Similarly, quail muscle cells were trasfected with the eIF5A-FLAG-His vector, the cells were incubated in hypoxia/reoxygenation-conditioned PBS (RCP), and a FLAG- and His-tagged recombinant eIF5A protein was collected from the culture supernatant. The proteins were treated with Ni-NTA Purification System (Invitrogen), and after that gel filtration was performed with phosphate buffer containing 0.15 M NaCl (pH 7.4) using Superdex 200™ 10-300GL (GE Healthcare, 1.0×30 cm, bed capacity 24 mL) to purify the myc- and FLAG-tagged recombinant eIF5A proteins. The first dimensional isoelectric focusing was performed with Immobiline DryStrip (pH 4 to 7, GE Healthcare) which had been allowed to swell overnight with a sample dissolved in 7 M urea, 2 M thiourea, 4% CHAPS, 65 mM dithioerythritol [DTE], 2% IPG buffer pH 4 to 7 (GE Healthcare) and bromophenol blue [BPB]. The electrophoresis was performed at a voltage of 30 V for 7 hours, at 60V for 7 hours, at 60 to 200 V for 30 min, at 200 to 500 V for 30 min, at 500 to 1000 V for 30 min, at 1000 to 8000 V for 30 min, and at 8000 V for 2 hours (19.4 kVh in total). The second dimensional SDS-PAGE was performed with a gel (concentrated gel 4% acrylamide, 2.6% piperazine diacrylamide [PDA], separating gel 12% acrylamide, 2.6% PDA) and the electrophoresis was performed at 12 mA for 2 hours. The gel was transferred to a PVDF membrane, and then the myc- and FLAG-tagged recombinant eIF5A proteins were analyzed by Western blotting. First, the proteins were analyzed using anti-myc monoclonal antibody (Invitrogen), biotinylated anti-mouse IgG antibody and Vectastain ABC-AP Kit (Vector) and then detected with alkaline phosphatase and chemiluminescence. Then, the proteins were analyzed using anti-FLAG monoclonal antibody (M2, Sigma) and horseradish peroxidase (HRP)-labeled anti-mouse IgG antibody and detected with Konica Immunostain HRP-1000 Kit (Konica Corporation).
(1) As thioredoxin has been known to act as antioxidant by reducing other proteins and play a protective role against oxidative stress-induced cell injury, eIF5A was considered to be a candidate of an apoptosis inducing humoral factor. eIF5A is the only protein known to contain a unique amino acid hypusine, which is formed post-translationally by two-steps of an enzymatic reaction. eIF5A has been known to be localized mainly in the cytoplasm under normal conditions where hypusinated eIF5A facilitates translation of mRNAs involved in cell proliferation. However, no study to date has reported that eIF5A can be released extracellularly and act as an apoptosis-inducing factor. To confirm that eIF5A is actually released from cardiac myocytes in response to hypoxia/reoxygenation and the released eIF5A can induce apoptosis of cardiac myocytes, quail muscle cells (CRL-1962, ATCC) were transfected with an expression vector containing the FLAG- and His-tagged human eIF5A gene, incubated with hypoxic PBS, and then incubated with normoxic PBS. The reoxygenation-conditioned PBS (RCP) was collected, concentrated, and purified using Ni-NTA Purification System (Invitrogen), and recombinant protein ([RCP] re-eIF5A) was extracted by gel filtration. (2) Similarly, recombinant human eIF5A ([cytosolic] re-eIF5A) was extracted from cytosolic fractions of the untreated transfected cells. (3) After these recombinant eIF5A proteins were separated by two-dimensional electrophoresis, the resultant was analyzed by Western blotting with anti-FLAG M2 mAb (Sigma) (FIG. 2b). […] Specifically, spots having higher pI values, such as hypusinated eIF5A (spots B and B′ in FIG. 2b), and spots having lower pI values, such as unhypusinated eIF5A (spots A and A′ in FIG. 2b) were identified. There was no detectable spots of deoxyhypusinated intermediate (references Taylor, C. A., et al. Exp. Cell Res. 313, 437-449). […]

[4] = test system: cultured cardiac myocytes; test: Release of cytochrome c from mitochondria (Western blot of cytosolic fraction); assay type: cell-based, rat; settings: peak at 48 hours
Experimental: Cultured cardiac myocytes were treated with a recombinant eIF5A for a predetermined time. Nucleic, mitochondrial, and cytosolic fraction of the cells were prepared as described in Non Patent Literatures 1 and 2. Briefly, 3×10^6 cells were washed in PBS, and suspended in 250 μl of a lysis buffer (250 mM sucrose, 50 mM Pipes/KOH, pH7.4, 50 mM KCl, 5 mM EGTA, 2 mM MgCl2, 1 mM DTT, and 1 mM PMSF). After 30 min on ice, the cells were lysed with 40 strokes using pestle B in a Dounce homogenizer, and centrifuged at 80 g for 10 min. The pellets were collected as the nucleic fraction. Then, the supernatants were prepared from cell lysates by centrifugation at 20,000 g for 20 min. The pellets were collected as the mitochondrial fraction, and the supernatants were regarded as the cytosolic fraction. The nucleic, mitochondrial, and cytosolic fractions were subjected to Western blot analysis with rabbit anti-AIF mAb (E20; Epitomics Inc., CA, USA) or mouse anti-cytochrome c mAb (7H, 8.2; C12; Lab Vision Corp., CA, USA). The antibody-antigen complexes were developed with a chemiluminescence system using alkalinephosphatase (New England Biolabs, Inc.).

[5] = test system: human hepatocellular carcinoma cells (ATCC; HB-8064); test: Apoptosis induction by recombinant eIF5A (TUNEL), hepatocellular carcinoma cells; assay type: cell-based; settings: 10 μg/ml, 30 to 36 hours
Experimental: (§1) Quail muscle cells (ATCC; CRL-1962), HeLa cells, human hepatocellular carcinoma cells (ATCC; HB-8064), and human glioblastoma cells (ATCC; CRL-1690) were incubated on a culture slide (BD Falcon) until they were confluent. These cells were treated with a recombinant eIF5A (10 μg/ml) for a predetermined time and fixed. Terminal deoxynucleotidyl transferase nick-end-labeled (TUNEL) staining was performed in situ with an Apoptosis Detection Kit (Takara Bio Inc.).

cardiac myocytes [6] = test: Electron microscopy of nuclear chromatin in cardiac myocytes; assay type: cell-based, rat
Experimental: The cardiac myocytes were treated with recombinant eIF5A for a predetermined period. The cells were fixed in 2% glutaraldehyde, postfixed in 2% osmium tetraoxide, dehydrated in ethanol, and embedded in a resin. Ultrathin section were prepared, stained with uranyl acetate and lead citrate, and examined with an electron microscope (H-7000, HITACHI, Japan).

[7] = test system: Quail muscle cells (ATCC; CRL-1962); test: Apoptosis induction by recombinant eIF5A (TUNEL), quail muscle cells; assay type: cell-based; settings: 10 μg/ml, normal cells, up to 72 hours
Experimental: as §1

Hela cells = test: Apoptosis induction by recombinant eIF5A (TUNEL), HeLa cells; assay type: cell-based, human; settings: 10 μg/ml, 30 to 36 hours
Experimental: as §1

[8] = test system: human glioblastoma cells (ATCC; CRL-1690); test: Apoptosis induction by recombinant eIF5A (TUNEL), glioblastoma cells; assay type: cell-based; settings: 10 μg/ml, 30 to 36 hours
Experimental: as §1

[9] = test system: cultured cardiac myocytes; test: Annexin V staining of cultured cardiac myocytes; assay type: cell-based, rat
Experimental: Cardiac myocytes were treated with a recombinant eIF5A (RCP) for a predetermined time. The cells were incubated with biotinylated-annexin V in 1× binding buffer (Annexin V-Biotin Apoptosis Detection Kit, BioVision Inc.) for 5 min and then fixed with 2% paraformaldehyde in PBS for 15 min. After washing in PBS, the cells were incubated with streptavidin-horseradish peroxidase (Vector) for 30 min. The subsequent procedures for immunofluorescence by TSA technology were the same as for AIF. To distinguish cardiac myocytes from non-muscle cells, cells were further incubated with mouse anti-cardiac myosin (clone CMA19) mAb (Non Patent Literature 1), followed by incubation with tetramethyl rhodamine isothiocyanate (TRITC)-conjugated anti-mouse IgG antibody, and then photographed in a fluorescence microscope.

[10] = test system: cultured cardiac myocytes; test: Subcellular translocation of apoptosis-inducing factor (AIF) in cultured cardiac myocytes; assay type: cell-based, rat; settings: double staining for AIF and Hoechst 33342
Experimental: Tyramide Signal Amplification (TSA) technology was used for fluorescence (TSA™ Biotin System, NEN Life Science Products, PerkinElmer; according to the manufacture's instruction). Cardiac myocytes were treated with a recombinant eIF5A (RCP) for a predetermined time and fixed with 4% paraformaldehyde in PBS for 15 min. The cells were washed with PBS and then incubated with rabbit anti-AIF mAb (E20; Epitomics Inc.) for 1 hour. The cells were washed, then incubated with biotinylated anti-rabbit IgG antibody (Chemicon International, Inc.) for 1 hour, washed, and incubated with streptavidin-horseradish peroxidase (Vector) for 30 min. The cells were washed in TNT buffer (0.1 M Tris-HCl, pH 7.5, 0.15 M NaCl, 0.05% Tween 20) and then incubated with biotinylated-tyramide for appropriate time (3 to 10 min). The cells were washed in TNT buffer and then incubated with FITC-labeled avidin-D (Vector) for 30 min. Nuclei were stained with 1 μg·mL^−1 Hoechst 33342 (DOJINDO Laboratories, Kumamoto, Japan). Confocal laser microscopy was performed on LSM510 Laser Scanning Microscope (Zeiss).

[11] = test system: cultured cardiac myocytes; test: Activation of caspase-3 (Western blot); assay type: cell-based, rat; settings: peak at 48 hours

Compound: NC(=O)c1cccc(N)c1 [3-aminobenzamide]
- inhibition at 2000 µM (cardiac myocytes [1]; Rattus norvegicus, read-out: inhibition of apoptosis induction by recombinant eIF5A (RCP)): ~30%

Compound: COC(=O)C[C@H](NC(=O)[C@H](C)NC(=O)[C@@H](NC(=O)OCc1ccccc1)C(C)C)C(=O)CF [Z-VAD.fmk] (Cbz-Val-Ala-Asp(OMe)-CH2F)
- inhibition of apoptosis induction by recombinant eIF5A (RCP) (cardiac myocytes [1]): ~70%

Compound: cytosolic (mostly unhypusinated) eIF5A: recombinant human eIF5A extracted from cytosolic fractions of untreated transfected cells [reference compound]
- induction of apoptosis of cultured cardiac myocytes (TUNEL and cardiac myosin double staining) [2]: almost no cardiac myocytes underwent apoptosis

Compound: cytosolic hypusinated eIF5A: hypusinated form of conventionally known cytosolic eIF5A, spot B in two-dimensional electrophoresis [reference compound]
- isoelectric point [3]: approx. 5.5
- isoelectric point ([3]; listed as spot B): 5.5

Compound: cytosolic unhypusinated eIF5A: unhypusinated form of conventionally known cytosolic eIF5A, spot A in two-dimensional electrophoresis [reference compound]
- isoelectric point [3]: approx. 5.4
- isoelectric point ([3]; listed as spot A): 5.4

Compound: recombinant eIF5A (RCP): FLAG- and His-tagged human eIF5A collected from reoxygenation-conditioned PBS of transfected quail muscle cells; secreted form
- cytosolic fractions of cytochrome c [4]: markedly increased
- induction of apoptosis (TUNEL staining) [5]: induced apoptosis
- nuclear chromatin by electron microscopy (cardiac myocytes [6]): hypercondensation of nuclear chromatins
- induction of apoptosis (TUNEL staining) [7]: not induced until 72 hours
- induction of apoptosis (TUNEL staining) (Hela cells): induced apoptosis
- induction of apoptosis of cultured cardiac myocytes (TUNEL and cardiac myosin double staining) [2]: potently induced apoptosis
- induction of apoptosis (TUNEL staining) [8]: induced apoptosis
- induction of apoptosis by Annexin-V staining [9]: further confirmed
- translocation of the apoptosis-inducing factor (AIF) from the cytosol (mitochondria) to the nucleus [10]: induced translocation
- active form of caspase-3 [11]: markedly increased

Compound: recombinant mutant eIF5A (K50A) derived from RCP: K50A mutant eIF5A secreted into reoxygenation-conditioned PBS by transfected quail muscle cells
- induction of apoptosis of cultured cardiac myocytes (TUNEL and cardiac myosin double staining) [2]: only partially induced apoptosis

Compound: secreted hypusinated eIF5A: hypusinated form of secreted eIF5A from RCP, spot B′
- isoelectric point [3]: approx. 5.4
- isoelectric point ([3]; listed as spot B′): 5.4

Compound: secreted unhypusinated eIF5: unhypusinated form of secreted eIF5A from RCP, spot A′
- isoelectric point [3]: approx. 5.3
- isoelectric point ([3]; listed as spot A′): 5.3
